These results are taken from US20120014926A1, “Activation of Precursor Cells for Cell Therapy” (priority 2009, published 2012).

One assay has as its system BMC. Put plainly: BMC migration towards SDF-1, modified Boyden chamber assay. Type of assay: cell-based, mouse. The note with it: inhibitor added to upper chamber along with treated BMC; p<0.05. Here is the method:
BMC migration towards SDF-1 was determined using a modified Boyden chamber assay. BMC were pre-incubated with either PBS or the invented solution for 4 hours at 37 deg.C. and transferred to the upper chamber of inserts in a 24-well plate containing DMEM and 100 ng/ml SDF-1. Migrated cells were counted after 6 hrs incubation at 37° C. Inhibitors AMD3100, LY294002, L-NMMA, and anti-CXCR4 antibody were added to the upper chamber along with BMC.

Assay [1] relates to mice after surgical implementation of hindlimb ischemia. Put plainly: Homing of injected GFP BMC to ischemic hindlimb muscle. As to conditions: SDF-1 protein 100 ng injected into ischemic hindlimb muscle; treated and untreated cells. Format: in vivo, mouse. Here is the method:
SDF1 protein was also injected into the ischemic hindlimb muscle to enhance BMC homing. SDF-1 protein (100 ng) was injected into the ischemic hindlimb muscle of WT BL6 mice twice at consecutive days after the surgery. The hindlimb muscles were recovered 7 days after the cell injection, stained with DAPI for nucleus (light white), and examined for GFP cells (bright white, arrow pointed) incorporation under fluorescent microscopy. (A) untreated BMC, B) Treated BMC, C) Untreated BMC+SDF-1, D) Treated BMC+SDF-1. E) The incorporated GFP cells were quantified as cells per high power field (HPF). *P<0.05, and **P<0.01 versus all other groups (n=6).

Take `c1cc(CN2CCCNCCNCCCNCC2)ccc1CN1CCCNCCNCCCNCC1` [AMD3100]: the “mobility of the treated BMC on addition of inhibitor” value in the assay on BMC is listed as “significantly reduced”. Same read-out and setting: for `CNC(=N)NCCC[C@H](N)C(=O)O` [L-NNMA] the value was “significantly reduced”. Take “SDF-1: stromal cell derived factor-1, chemotactic cytokine, protein injected into ischemic hindlimb muscle”: the “effect of exogenous SDF-1 on homing of injected BMC” value in assay [1] is “homed more efficiently”.
